Data as given in ChEMBL document CHEMBL1201862, “PubChem BioAssay data set” (2004).
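Assay format: 96-well plates, 48-hour exposure. GI50 is the concentration that inhibits growth by half.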 The source made the active and inactive calls. No stated cut-off is given here; in the data, active = GI50 up to about 1.1 µM and inactive = higher.

How the values were obtained:
Experiment in all cases: inhibition of tumour cell growth, NCI panel, 48 h
[1] = test system: M19-MEL
[2] = test system: XF498
[3] = test system: LXFL 529
[4] = test system: DMS-114
[5] = test system: KM-20L2
[6] = test system: RXF 631
[7] = test system: DMS-273
[8] = test system: SNB-78
[9] = test system: HOP-18

In the case of `CN(O)C(=O)c1ccccc1`, the GI50 [1] was > 100 µM (inactive), the GI50 [2] was > 100 µM (inactive) and the GI50 [3] was > 100 µM (inactive). For the same compound, the GI50 [4] was > 100 µM (inactive), the GI50 [5] was > 100 µM (inactive) and the GI50 [6] was > 100 µM (inactive). For the same compound, the GI50 [7] was > 100 µM (inactive).
In the case of `CC[N+]1(C)CCC(O)(c2ccc(OC)cc2)C(C(=O)c2ccc(OC)cc2)C1` (stereo not drawn), the GI50 [8] was 14.8 µM (inactive), the GI50 [9] was 14.7 µM (inactive) and the GI50 [1] was 20.5 µM (inactive). For the same compound, the GI50 [2] was 11 µM (inactive), the GI50 [3] was 3.49 µM (inactive) and the GI50 [4] was 19.9 µM (inactive). The GI50 [5] was 21.9 µM (inactive), the GI50 [6] was 18.5 µM (inactive) and the GI50 [7] was 19 µM (inactive).
With `COc1ccc(-c2onc(-c3ccc([N+](=O)[O-])cc3)c2C2=NCCCN2)cc1` the GI50 [8] was > 100 µM (inactive), the GI50 [9] was 3.4 µM (inactive) and the GI50 [1] was > 100 µM (inactive). For the same compound, the GI50 [2] was > 100 µM (inactive), the GI50 [3] was > 100 µM (inactive) and the GI50 [5] was 44.3 µM (inactive).
With `O=C(O)Cc1cc(=O)[nH]c2c1/C(=N/O)CCC2` the GI50 [9] was > 100 µM (inactive), the GI50 [2] was > 100 µM (inactive) and the GI50 [3] was > 100 µM (inactive).
`Cc1cc2nc3c(=O)n(C)c(=O)nc-3n(-c3ccc(Cl)cc3)c2cc1C` was tested, and the GI50 [8] was 18.5 µM (inactive), the GI50 [9] was 6.87 µM (inactive) and the GI50 [1] was 2.32 µM (inactive). The GI50 [2] was 1.29 µM (inactive), the GI50 [3] was 14 µM (inactive) and the GI50 [4] was 3.1 µM (inactive). For the same compound, the GI50 [5] was 3.62 µM (inactive) and the GI50 [7] was 5.62 µM (inactive).
In the case of `CCOC(=O)c1sc(Nc2cc(Cl)ccc2Cl)nc1C`, the GI50 [8] was > 100 µM (inactive), the GI50 [9] was > 100 µM (inactive) and the GI50 [1] was > 100 µM (inactive). The GI50 [2] was 48.4 µM (inactive), the GI50 [3] was 91.4 µM (inactive) and the GI50 [4] was 93.3 µM (inactive). The GI50 [5] was 54.7 µM (inactive) and the GI50 [6] was > 100 µM (inactive).
For `C=C1C2Oc3ccccc3C1N(c1ccccc1)O2` (stereo not drawn), the GI50 [1] was 42.7 µM (inactive), the GI50 [2] was 17.4 µM (inactive) and the GI50 [3] was 35.2 µM (inactive). For the same compound, the GI50 [4] was 23.3 µM (inactive), the GI50 [5] was 37.6 µM (inactive) and the GI50 [6] was 16 µM (inactive). For the same compound, the GI50 [7] was > 10 µM (inactive).
For `Nc1ccn(C2OC(CO)C(O)C2O)c(=O)n1` (stereo not drawn), the GI50 [1] was 6.43 µM (inactive), the GI50 [2] was 434 µM (inactive) and the GI50 [3] was > 443 µM (inactive). For the same compound, the GI50 [4] was 0.173 µM (active), the GI50 [5] was 64 µM (inactive) and the GI50 [7] was 1.74 µM (inactive).
For `Cc1ccc(C)c(N2C(=O)C(=O)C(c3nc4ccccc4o3)/C(=N\NC(=O)c3ccccc3O)C2=O)c1` (stereo not drawn), the GI50 [8] was 6.08 µM (inactive), the GI50 [9] was 20.9 µM (inactive) and the GI50 [1] was 64.7 µM (inactive). The GI50 [3] was 31.8 µM (inactive), the GI50 [4] was 20.1 µM (inactive) and the GI50 [5] was 41.1 µM (inactive). For the same compound, the GI50 [7] was 6.14 µM (inactive).
With `Cc1cc(N(CCC#N)CCC#N)ccc1/C=C1/N=C(c2ccccc2)N(N)C1=O` the GI50 [1] was > 100 µM (inactive), the GI50 [2] was > 100 µM (inactive) and the GI50 [3] was > 100 µM (inactive). The GI50 [4] was 75 µM (inactive), the GI50 [5] was > 100 µM (inactive) and the GI50 [7] was 89.1 µM (inactive).
`CCN(CC)CCCNC(=O)C1COc2cc(-c3cc(=O)c4ccccc4o3)ccc2O1` (stereo not drawn) was tested, and the GI50 [8] was > 100 µM (inactive), the GI50 [9] was > 100 µM (inactive) and the GI50 [1] was 20.9 µM (inactive). The GI50 [3] was 53 µM (inactive), the GI50 [4] was 25.4 µM (inactive) and the GI50 [5] was 34.8 µM (inactive). For the same compound, the GI50 [6] was 34.4 µM (inactive) and the GI50 [7] was 65.5 µM (inactive).
In the case of `O=C(O)/C(Cl)=C(\Cl)C(=O)c1ccccc1`, the GI50 [8] was > 100 µM (inactive), the GI50 [1] was > 100 µM (inactive) and the GI50 [2] was > 100 µM (inactive). For the same compound, the GI50 [3] was > 100 µM (inactive), the GI50 [4] was > 100 µM (inactive) and the GI50 [5] was > 100 µM (inactive). For the same compound, the GI50 [7] was > 100 µM (inactive).
`CC(=O)OCc1cc(=O)n(C)c2c3c4c(cc12)c(C)cc(=O)n4CO3` was tested, and the GI50 [8] was 1.99 µM (inactive), the GI50 [9] was 5.33 µM (inactive) and the GI50 [1] was 1.43 µM (inactive). The GI50 [2] was 1.17 µM (inactive), the GI50 [4] was 1.69 µM (inactive) and the GI50 [5] was 2.02 µM (inactive). For the same compound, the GI50 [7] was 0.982 µM (active).
In the case of `Cc1ccc([N+](=O)[O-])cc1NC(=O)C(=O)Cc1occc(=O)c1O`, the GI50 [9] was > 100 µM (inactive), the GI50 [1] was > 100 µM (inactive) and the GI50 [2] was > 100 µM (inactive). The GI50 [4] was > 100 µM (inactive) and the GI50 [5] was > 100 µM (inactive).
With `O=C1OC(c2ccccc2)(c2ccccc2)c2ccc3ccc(F)cc3c21` the GI50 [1] was 20.7 µM (inactive), the GI50 [2] was > 100 µM (inactive) and the GI50 [3] was > 100 µM (inactive). For the same compound, the GI50 [4] was 9.23 µM (inactive), the GI50 [5] was 21.8 µM (inactive) and the GI50 [6] was 51.4 µM (inactive). For the same compound, the GI50 [7] was 7.21 µM (inactive).
With `C1=Nc2ccccc2Cn2nncc21` the GI50 [9] was 74.8 µM (inactive), the GI50 [1] was > 100 µM (inactive) and the GI50 [2] was > 100 µM (inactive). For the same compound, the GI50 [3] was 98.2 µM (inactive), the GI50 [5] was > 100 µM (inactive) and the GI50 [7] was > 10 µM (inactive).
In the case of `CC(C)c1cccc2sc(NC(=O)C(=O)CC(=O)c3ccc(F)cc3)nc12`, the GI50 [8] was > 100 µM (inactive), the GI50 [1] was > 100 µM (inactive) and the GI50 [2] was > 100 µM (inactive). The GI50 [3] was > 100 µM (inactive), the GI50 [4] was > 100 µM (inactive) and the GI50 [5] was > 100 µM (inactive). For the same compound, the GI50 [6] was > 100 µM (inactive) and the GI50 [7] was > 100 µM (inactive).
In the case of `Clc1ccc(C[P+](c2ccccc2)(c2ccccc2)c2ccccc2)cc1Cl`, the GI50 [8] was 25.8 µM (inactive), the GI50 [9] was 2.1 µM (inactive) and the GI50 [1] was 1.79 µM (inactive). For the same compound, the GI50 [2] was 1.32 µM (inactive), the GI50 [4] was 1.52 µM (inactive) and the GI50 [5] was 2.94 µM (inactive). For the same compound, the GI50 [7] was 2.01 µM (inactive).
In the case of `CCCCC1(C2c3ccccc3Oc3ccccc32)C(=O)N(c2ccccc2)N(c2ccccc2)C1=O`, the GI50 [8] was 37.1 µM (inactive), the GI50 [9] was > 100 µM (inactive) and the GI50 [1] was > 100 µM (inactive). The GI50 [2] was > 31.9 µM (inactive), the GI50 [5] was 22.5 µM (inactive) and the GI50 [7] was 47 µM (inactive).
With `CC(C)(C)OC(=O)NC(Cc1ccccc1)C(=S)N1CCCC1` (stereo not drawn) the GI50 [8] was > 100 µM (inactive), the GI50 [9] was > 100 µM (inactive) and the GI50 [1] was > 100 µM (inactive). The GI50 [2] was > 100 µM (inactive), the GI50 [3] was > 90.4 µM (inactive) and the GI50 [4] was 65.5 µM (inactive). The GI50 [5] was > 100 µM (inactive), the GI50 [6] was > 100 µM (inactive) and the GI50 [7] was > 79.3 µM (inactive).
In the case of `C=C(C=O)[C@@H]1C2OC(=O)C(=C)[C@@H]2CC(O)[C@@]1(C)CC` (stereo partly drawn), the GI50 [8] was 6.17 µM (inactive), the GI50 [9] was 26.1 µM (inactive) and the GI50 [1] was 5.48 µM (inactive). For the same compound, the GI50 [3] was 3.08 µM (inactive), the GI50 [4] was 14.8 µM (inactive) and the GI50 [5] was 12.2 µM (inactive). The GI50 [6] was 19.2 µM (inactive).
In the case of `NCCCNCCSP(=O)(O)O` [AMIFOSTINE], the GI50 [8] was > 750 µM (inactive), the GI50 [9] was > 750 µM (inactive) and the GI50 [1] was 514 µM (inactive). The GI50 [2] was > 422 µM (inactive), the GI50 [4] was > 750 µM (inactive) and the GI50 [5] was > 719 µM (inactive). For the same compound, the GI50 [7] was > 750 µM (inactive).
In the case of `Cn1c(/C=C/CO)c(CO)c2c1C(=O)C=C(N1CC1)C2=O` [APAZIQUONE], the GI50 [8] was 0.2 µM (active), the GI50 [9] was < 0.01 µM (active) and the GI50 [1] was < 0.01 µM (active). The GI50 [2] was < 0.01 µM (active), the GI50 [4] was < 0.01 µM (active) and the GI50 [5] was 0.0147 µM (active). The GI50 [7] was < 0.01 µM (active).
